The source made the active and inactive calls. The rule behind the calls is not given here.
What was measured:
[1] = tested on: Neutrophil; assay: Inhibition of superoxide production in human neutrophils; type: functional, cell-based
[2] = Viability of human neutrophils by trypan blue assay at 500 uM; type: functional, Neutrophil
[3] = tested on: HL-60; assay: Antiproliferative activity against HL60 cells by MTT assay; type: functional, cell-based; conditions: Homo sapiens
[4] = tested on: Neutrophil; assay: Inhibition of PMA-induced adhesion of neutrophils; type: functional, cell-based; conditions: Homo sapiens

- IC50 [1]: 35 µM
- IC50 [3]: 33 µM
Structure (SMILES): O=C1O/C(=C\c2ccc(O)c(Br)c2)C(c2cc(Br)c(O)c(Br)c2)=C1Cl [RUBROLIDE O]
- Activity [2]: 87%
- Activity [4]: Active

— ChEMBL document CHEMBL1139211, “E/Z-rubrolide O, an anti-inflammatory halogenated furanone from the New Zealand ascidian Synoicum n. sp” (J Nat Prod, 2007)
